SMILES strings stand for the structures. Calls of active or inactive are those of the source. No cut-off for these calls is given here.

Data set [1] addresses T1, Sodium/hydrogen exchanger 3 (Homo sapiens, UniProt P48764).
T1 sequence (P48764 whole entry): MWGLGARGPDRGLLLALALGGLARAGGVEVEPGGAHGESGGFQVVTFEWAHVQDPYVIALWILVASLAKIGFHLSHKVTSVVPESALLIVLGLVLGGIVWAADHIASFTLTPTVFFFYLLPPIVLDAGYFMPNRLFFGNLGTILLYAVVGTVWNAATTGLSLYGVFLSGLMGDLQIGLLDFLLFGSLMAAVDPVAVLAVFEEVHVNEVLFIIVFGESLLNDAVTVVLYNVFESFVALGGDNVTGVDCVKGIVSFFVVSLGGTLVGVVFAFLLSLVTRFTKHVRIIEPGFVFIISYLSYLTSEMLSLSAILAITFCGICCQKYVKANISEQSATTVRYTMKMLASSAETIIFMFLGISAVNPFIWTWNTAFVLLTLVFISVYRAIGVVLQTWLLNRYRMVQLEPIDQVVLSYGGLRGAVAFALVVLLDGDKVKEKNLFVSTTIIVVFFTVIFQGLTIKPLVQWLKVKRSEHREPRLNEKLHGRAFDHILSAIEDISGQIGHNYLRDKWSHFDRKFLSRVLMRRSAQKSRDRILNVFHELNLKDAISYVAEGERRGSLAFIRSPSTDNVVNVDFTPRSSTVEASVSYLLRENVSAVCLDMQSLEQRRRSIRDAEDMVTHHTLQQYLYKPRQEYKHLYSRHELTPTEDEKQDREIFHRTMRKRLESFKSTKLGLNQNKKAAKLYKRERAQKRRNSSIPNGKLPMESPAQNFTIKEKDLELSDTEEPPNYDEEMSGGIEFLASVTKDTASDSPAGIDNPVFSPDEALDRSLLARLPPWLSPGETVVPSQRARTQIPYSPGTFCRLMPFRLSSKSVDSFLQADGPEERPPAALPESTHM
Nature of the data set: Inhibition of human NHE3 expressed in opossum kidney cells assessed as reduction in Na-HEPES buffer-mediated pH recovery in presence of NEH1 inhibitor ethyl isopropyl amiloride by BCECF-AM dye based fluorescence assay. Format: cell-based, Kidney epithelial cell.

The target of data set [2] is Sodium/hydrogen exchanger 3 (Rattus norvegicus, UniProt P26433). Nature of the data set: Inhibition of rat NHE3 expressed in opossum kidney cells assessed as reduction in Na-HEPES buffer-mediated pH recovery in presence of NEH1 inhibitor ethyl isopropyl amiloride by BCECF-AM dye based fluorescence assay. Format: cell-based, Kidney epithelial cell.
Sequence of Sodium/hydrogen exchanger 3 (Rattus norvegicus, UniProt P26433) (P26433 whole entry): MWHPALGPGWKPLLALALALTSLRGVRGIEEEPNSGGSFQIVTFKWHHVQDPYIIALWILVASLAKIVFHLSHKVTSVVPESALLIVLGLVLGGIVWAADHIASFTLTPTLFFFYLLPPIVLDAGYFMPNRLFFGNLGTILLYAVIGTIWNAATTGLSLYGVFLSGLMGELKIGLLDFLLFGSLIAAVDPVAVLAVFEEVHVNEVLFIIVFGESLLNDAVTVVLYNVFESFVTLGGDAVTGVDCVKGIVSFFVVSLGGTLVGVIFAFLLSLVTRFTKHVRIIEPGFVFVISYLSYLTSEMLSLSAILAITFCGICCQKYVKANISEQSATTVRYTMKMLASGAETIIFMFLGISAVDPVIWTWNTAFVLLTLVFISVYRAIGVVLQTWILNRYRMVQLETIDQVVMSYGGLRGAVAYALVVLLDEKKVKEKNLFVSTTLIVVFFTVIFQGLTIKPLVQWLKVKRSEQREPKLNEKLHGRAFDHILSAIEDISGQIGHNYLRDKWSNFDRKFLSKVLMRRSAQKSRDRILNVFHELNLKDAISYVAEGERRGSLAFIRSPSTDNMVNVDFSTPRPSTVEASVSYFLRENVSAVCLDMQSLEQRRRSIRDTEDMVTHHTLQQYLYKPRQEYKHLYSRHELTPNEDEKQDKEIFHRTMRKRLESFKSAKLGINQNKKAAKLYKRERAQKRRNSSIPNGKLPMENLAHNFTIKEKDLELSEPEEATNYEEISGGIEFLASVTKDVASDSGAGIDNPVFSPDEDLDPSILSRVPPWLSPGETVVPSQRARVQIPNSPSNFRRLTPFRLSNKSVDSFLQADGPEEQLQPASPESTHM
Another data set concerns Rattus norvegicus. Nature of the data set: In vivo inhibition of NEH3 in Sprague-Dawley rat assessed as reduction in sodium excretion in urine at 0.1 to 3 mg/kg, po administered via gavage measured after 16 hrs by ion chromatography. Format: functional, organism-based. Conditions: dose 0.1-3 mg/kg.
Data set [3] can be described thus: In vivo inhibition of NEH3 in Sprague-Dawley rat assessed as increase in fecal water content at 0.1 to 3 mg/kg, po administered via gavage measured after 6 hrs. Format: functional. Also on record: scale not given: the % may be the effect or the level left. Particulars: dose 0.1-3 mg/kg.
A short description of data set [4]: Drug recovery in Sprague-Dawley rat feces at 0.1 mg/kg, po administered via gavage measured after 72 hrs by LC-MS/MS analysis. Format: ADME, organism-based. Conditions: faeces, read-out: Drug recovery.
Data set [5] can be described thus: Drug metabolism in Sprague-Dawley rat feces at 0.1 mg/kg, po administered via gavage measured after 72 hrs by LC-MS/MS analysis. The class given is ADME, organism-based. Particulars: in vivo.
Data set [6] is described as follows: Cmax in Sprague-Dawley rat at 30 mg/kg, po administered via gavage by LC-MS/MS analysis. The class given is ADME, organism-based. Also on record: dose 30 mg/kg, route po. Particulars: in vivo.
Data set [7] is described as follows: Drug metabolism in Sprague-Dawley rat at 30 mg/kg, po administered via gavage by LC-MS/MS analysis. Format: ADME, organism-based. Conditions: in vivo.
The target in the next data set is hERG (KCNH2) (Homo sapiens, UniProt Q12809). As to the kind of experiment: Inhibition of human ERG at 10 uM relative to control. The class given is toxicity.
Sequence of hERG (KCNH2) (Q12809 whole entry): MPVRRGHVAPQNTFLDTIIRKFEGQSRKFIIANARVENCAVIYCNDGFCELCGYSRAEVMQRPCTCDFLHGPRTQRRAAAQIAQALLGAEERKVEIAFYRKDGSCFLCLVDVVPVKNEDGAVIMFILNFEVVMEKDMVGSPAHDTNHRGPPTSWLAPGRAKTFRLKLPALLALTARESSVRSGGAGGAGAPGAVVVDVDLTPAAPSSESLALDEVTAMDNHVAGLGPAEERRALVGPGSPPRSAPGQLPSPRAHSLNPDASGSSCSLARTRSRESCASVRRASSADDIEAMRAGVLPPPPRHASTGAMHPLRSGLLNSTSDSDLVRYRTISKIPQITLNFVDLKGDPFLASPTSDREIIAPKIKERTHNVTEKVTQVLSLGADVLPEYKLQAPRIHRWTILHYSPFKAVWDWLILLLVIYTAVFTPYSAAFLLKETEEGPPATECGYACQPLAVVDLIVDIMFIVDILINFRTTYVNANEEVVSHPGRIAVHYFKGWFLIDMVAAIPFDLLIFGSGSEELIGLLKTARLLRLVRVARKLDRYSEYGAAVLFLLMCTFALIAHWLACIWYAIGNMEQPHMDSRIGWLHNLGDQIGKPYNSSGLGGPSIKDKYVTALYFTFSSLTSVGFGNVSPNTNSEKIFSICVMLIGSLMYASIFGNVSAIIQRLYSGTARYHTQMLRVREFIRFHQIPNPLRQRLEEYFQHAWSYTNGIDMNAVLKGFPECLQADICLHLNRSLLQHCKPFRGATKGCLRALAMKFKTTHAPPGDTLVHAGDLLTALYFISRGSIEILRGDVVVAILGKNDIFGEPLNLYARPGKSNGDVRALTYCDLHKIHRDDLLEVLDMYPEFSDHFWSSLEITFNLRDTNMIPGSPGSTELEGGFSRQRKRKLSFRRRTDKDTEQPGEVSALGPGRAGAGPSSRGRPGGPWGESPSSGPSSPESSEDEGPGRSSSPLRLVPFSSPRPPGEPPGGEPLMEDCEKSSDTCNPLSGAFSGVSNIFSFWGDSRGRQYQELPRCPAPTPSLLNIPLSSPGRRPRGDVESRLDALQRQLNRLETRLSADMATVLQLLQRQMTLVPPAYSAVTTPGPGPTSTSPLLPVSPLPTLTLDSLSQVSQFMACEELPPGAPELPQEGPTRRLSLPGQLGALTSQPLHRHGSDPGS
A short description of data set [8]: Toxicity in Sprague-Dawley rat assessed as gross pathological changes at 30 mg/kg, po administered for 7 days measured on day 8 by necropsy. The class given is organism-based. Conditions: in vivo, 192 h, time 8 day.
Data set [9] in a line: Toxicity in Sprague-Dawley rat assessed as pathological changes at 30 mg/kg, po administered for 7 days measured on day 8 by microscopy. Format: organism-based. Conditions: in vivo, 192 h, time 8 day.
A short description of data set [10]: Toxicity in Sprague-Dawley rat assessed as change in alanine aminotransferase level at 30 mg/kg, po administered for 7 days measured on day 8. The class given is organism-based. Particulars: in vivo, 192 h, time 8 day.
A short description of data set [11]: Toxicity in Sprague-Dawley rat assessed as change in aspartate aminotransferase level at 30 mg/kg, po administered for 7 days measured on day 8. Format: organism-based. Particulars: in vivo, 192 h, time 8 day.
A short description of data set [12]: Toxicity in Sprague-Dawley rat assessed as diarrhea at 30 mg/kg, po administered for 7 days. The class given is organism-based. Conditions: in vivo, 168 h, time 7 day.

On to `CN1Cc2c(Cl)cc(Cl)cc2[C@H](c2cccc(S(=O)(=O)NCCOCCOCCNC(=O)NCCCCNC(=O)NCCOCCOCCNS(=O)(=O)c3cccc([C@@H]4CN(C)Cc5c(Cl)cc(Cl)cc54)c3)c2)C1` [TENAPANOR], for which the IC50 is 0.501 nM in [1] and 15.8 nM in data set [2]. For the same compound, the inhibition result with Rattus norvegicus is “Active”. Also, the Activity in data set [3] is given as 10%; in [8], “Non-Toxic”; in data set [9] it was “Non-Toxic”; in [10] it was “Non-Toxic”; in data set [11], “Non-Toxic”; in [12], “Toxic”. Further, the dose excreted at 72 h in data set [4] is 92%. Also, the Drug metabolism result in data set [5] is reported as “Metabolite_Detected”; in data set [7], “Metabolite_Notdetected”. For the same compound, the Cmax in data set [6] was less than 3 ng/mL. The same compound registered an inhibition at 10 µM on hERG (KCNH2) of less than 50%.

The values above are taken from ChEMBL document CHEMBL5143744, “Discovery of Tenapanor: A First-in-Class Minimally Systemic Inhibitor of Intestinal Na+/H+ Exchanger Isoform 3” (ACS Med Chem Lett, 2022).
